In patent US10752615B2, “Spirocyclic containing compounds and pharmaceutical uses thereof” (GB005, Inc., priority 2016, dated 2020) one finds IC50 data, which are given here for 39 compounds.

Usually IC50 stands for the concentration that inhibits the measured activity by half.

Chain of TXK (P42681 whole entry): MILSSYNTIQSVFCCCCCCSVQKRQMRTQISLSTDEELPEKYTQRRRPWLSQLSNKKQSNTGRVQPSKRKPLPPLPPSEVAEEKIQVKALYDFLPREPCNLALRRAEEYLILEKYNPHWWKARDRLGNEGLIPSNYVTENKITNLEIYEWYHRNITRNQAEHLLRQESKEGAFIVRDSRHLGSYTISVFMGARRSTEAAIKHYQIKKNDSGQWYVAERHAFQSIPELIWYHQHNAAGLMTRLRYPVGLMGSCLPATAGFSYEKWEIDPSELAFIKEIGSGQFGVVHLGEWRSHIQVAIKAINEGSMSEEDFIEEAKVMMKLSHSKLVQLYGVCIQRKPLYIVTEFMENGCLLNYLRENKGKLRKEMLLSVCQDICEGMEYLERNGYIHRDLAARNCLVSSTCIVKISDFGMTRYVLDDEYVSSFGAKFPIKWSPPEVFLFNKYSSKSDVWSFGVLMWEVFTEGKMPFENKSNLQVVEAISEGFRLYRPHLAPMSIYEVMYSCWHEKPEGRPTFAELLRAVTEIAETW

For one assay, the target named is BTK (Homo sapiens (Human), UniProt Q06187). Description: Kinase inhibition assay (Nanosyn, microfluidic detection), BTK. Format: biochemical. To be noted: 1 mM ATP, 3 hours at 25° C. As to the method: (§1) The in vitro kinase assays were performed at Nanosyn (Santa Clara, Calif.) utilizing microfluidic detection technology. The test compounds were serially pre-diluted in DMSO and added, by the acoustic dispensing (Labcyte® 550), directly to 384 well assay plates into 10 uL of a buffer with enzyme (ITK, TXK, BTK or TEC) comprising: 100 mM HEPES, pH7.5, 5 mM MgCl2, 0.1% bovine serum albumin, 1 mM DTT, 0.01% Triton X-100 and the enzyme. Final DMSO concentration was maintained at 1% in all samples, including the controls. The reactions were initiated by addition of ATP (1 mM final concentration) and the fluorescently labeled peptide substrate to a final concentration of 1 uM, and incubated for 3 hours at 25° C. Following incubation, the reactions were quenched by addition of 40 μL of termination buffer (100 mM HEPES, pH7.5, 0.01% Triton X-100, 50 mM EDTA). Terminated plates were analyzed using Caliper LabChip® 3000 microfluidic electrophoresis instrument (Caliper Life Sciences/Perkin Elmer). The enzymatic modification of the peptide substrate (phosphorylation) results in a change of net charge enabling electrophoretic separation of product from substrate. As substrate and product are separated by electrophoresis, two peaks of fluorescence are observed. Change in the relative fluorescence intensity of the substrate and product peaks was the parameter measured, reflecting enzyme activity. In the presence of inhibitor, the ratio between product and substrate is altered: signal of the product decreases, while the signal of the substrate increases. Activity in each test sample was determined as the product to sum ratio (PSR): P/(S+P), where P is the peak height of the product and S is the peak height of the […]. For each compound, enzyme activity was measured at 12 concentrations spaced by 3× dilution intervals. Negative control samples (0%-inhibition in the absence of inhibitor, DMSO only) and positive control samples (100%-inhibition, in the absence of enzyme or in the presence of control inhibitor) were assembled in replicates of four and were used to calculate %-inhibition values in the presence of compounds. Percent inhibition (Pinh) was determined using the following equation: Pinh=(PSR0%−PSRinh)/(PSR0%−PSR100%)*100, where PSRinh is the product sum ratio in the presence of inhibitor, PSR0% is the product sum ratio in the absence of inhibitor and PSR100% is the product sum ratio in 100%-inhibition control samples. To determine IC50 values, the inhibition curves (Pinh versus inhibitor concentration) were fitted by 4 parameter sigmoid dose-response model using XLfit software (IDBS).
Chain of BTK (Q06187 whole entry): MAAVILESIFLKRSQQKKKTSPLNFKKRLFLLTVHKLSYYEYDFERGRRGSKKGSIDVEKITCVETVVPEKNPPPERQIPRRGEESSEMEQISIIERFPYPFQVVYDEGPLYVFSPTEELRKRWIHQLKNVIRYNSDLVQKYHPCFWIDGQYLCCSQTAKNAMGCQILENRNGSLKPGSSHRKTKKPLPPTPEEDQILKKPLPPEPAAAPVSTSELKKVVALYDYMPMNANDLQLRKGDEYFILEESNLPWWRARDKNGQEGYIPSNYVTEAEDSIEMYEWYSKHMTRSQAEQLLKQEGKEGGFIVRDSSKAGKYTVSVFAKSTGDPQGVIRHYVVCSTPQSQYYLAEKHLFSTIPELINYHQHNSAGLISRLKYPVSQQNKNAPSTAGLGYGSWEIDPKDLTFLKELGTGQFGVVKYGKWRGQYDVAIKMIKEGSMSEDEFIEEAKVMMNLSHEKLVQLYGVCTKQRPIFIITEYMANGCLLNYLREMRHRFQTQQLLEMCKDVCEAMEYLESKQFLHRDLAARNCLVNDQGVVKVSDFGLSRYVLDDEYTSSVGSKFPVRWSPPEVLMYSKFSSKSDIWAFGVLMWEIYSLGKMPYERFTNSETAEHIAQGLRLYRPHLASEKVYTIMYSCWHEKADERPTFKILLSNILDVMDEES
`C=CC(=O)N1CC[C@]2(C1)C[C@H](n1c(NC(=O)c3ccc(OC)nc3)nc3ccccc31)C2` [Compound 55] showed an IC50 of 27.4 nM.

`C=CC(=O)N1CC[C@]2(C1)C[C@H](n1c(NC(=O)c3ccc(C(F)(F)CO)s3)nc3ccccc31)C2` [Compound 130] registered an IC50 of 1.06 nM.

For the compound `C=CC(=O)N1CC[C@]2(C1)C[C@H](n1c(NC(=O)c3cncs3)nc3cc(CN[C@@H](C)C(C)(C)C)ccc31)C2` [Compound 13], the IC50 was 1.8 nM.

`C=CC(=O)N1CC[C@]2(C1)C[C@H](n1c(NC(=O)c3ccc(-c4cnco4)s3)nc3cc(F)ccc31)C2` [Compound 57] had an IC50 of 1.09 nM.

`C=CC(=O)N1CC[C@]2(C1)C[C@H](n1c(NC(=O)c3ccc(-c4cnco4)s3)nc3cc(CNCC(C)(C)CO)ccc31)C2` [Compound 44] came in with an IC50 of 0.66 nM.

`C=CC(=O)N1CC[C@]2(C1)C[C@H](n1c(NC(=O)c3ccc(C(C)(F)F)s3)nc3ccccc31)C2` [Compound 30] came in with an IC50 of 2.11 nM.

In turn, `C=CC(=O)N1CC[C@]2(C1)C[C@H](n1c(NC(=O)c3ccc(-c4ccnc(N)n4)s3)nc3ccccc31)C2` [Compound 138] gave an IC50 of 0.41 nM.

`C=CC(=O)N1CC[C@]2(C1)C[C@H](n1c(NC(=O)c3ccc(-c4cncc(N)c4)s3)nc3ccccc31)C2` [Compound 128] returned an IC50 of 0.63 nM.

In turn, `C=CC(=O)N1CC[C@]2(C1)C[C@H](n1c(NC(=O)c3ccc(-c4ccnc(C)n4)s3)nc3ccccc31)C2` [Compound 149] registered an IC50 of 0.68 nM.

`C=CC(=O)N1CC[C@]2(C1)C[C@H](n1c(NC(=O)c3ccc(-c4cnco4)s3)nc3cc(CN[C@H]4CC[C@H](O)CC4)ccc31)C2` [Compound 42] registered an IC50 of 0.53 nM.

`C=CC(=O)N1CC[C@]2(C1)C[C@H](n1c(NC(=O)c3ccc(C(F)F)s3)nc3cc(CN[C@@H](C)C(C)(C)C)ccc31)C2` [Compound 2] gave an IC50 of 1.01 nM.

`C=CC(=O)N1CC[C@]2(C1)C[C@H](n1c(NC(=O)c3ccns3)nc3cc(CN[C@@H](C)C(C)(C)C)ccc31)C2` [Compound 25] had an IC50 of 0.7 nM.

`C=CC(=O)N1CC[C@]2(C1)C[C@H](n1c(NC(=O)c3ccc(C#N)cc3)nc3cc(CN[C@@H](C)C(C)(C)C)ccc31)C2` [Compound 19] had an IC50 of 1.34 nM.

Compound `C=CC(=O)N1CC[C@]2(C1)C[C@H](n1c(NC(=O)c3ccc(-c4ccnc(NC)c4)s3)nc3ccccc31)C2` [Compound 131] registered an IC50 of 0.46 nM.

Turning to `C=CC(=O)N1CC[C@]2(C1)C[C@H](n1c(NC(=O)c3ccc(-c4cnco4)s3)nc3cc(CN[C@@H](C)C(C)(C)C)ccc31)C2` [Compound 4], 0.64 nM corresponded to half-maximal inhibition (IC50).

As for `C=CC(=O)N1CC[C@]2(C1)C[C@@H](n1c(NC(=O)c3ccc(-c4cnco4)s3)nc3cc(F)ccc31)C2` [Compound 68], the IC50 came out at 41.9 nM.

Consider `C=CC(=O)N1CC[C@]2(C1)C[C@@H](n1c(NC(=O)c3ccc(C(F)F)s3)nc3cc(CN[C@@H](C)C(C)(C)C)ccc31)C2` [Compound 3], for which the IC50 amounted to 26.8 nM.

In turn, `C=CC(=O)N1CC[C@]2(C1)C[C@H](n1c(NC(=O)c3ccc(C(F)F)s3)nc3cc(CN4CCOCC4)ccc31)C2` [Compound 27] registered an IC50 of 2.59 nM.

`C=CC(=O)N1CC[C@]2(C1)C[C@H](n1c(NC(=O)c3ccc(C(F)F)s3)nc3cc(CNCC(C)(C)CO)ccc31)C2` [Compound 37]: 0.95 nM corresponded to half-maximal inhibition (IC50).

Compound `C=CC(=O)N1CC[C@]2(C1)C[C@H](n1c(NC(=O)c3ccc(-c4cc[nH]c(=O)c4)s3)nc3ccccc31)C2` [Compound 97] registered a concentration for half-maximal inhibition (IC50) of 0.33 nM.

The target in a further assay is TXK (Homo sapiens (Human), UniProt P42681). Briefly: Kinase inhibition assay (Nanosyn, microfluidic detection), TXK. Format: biochemical. The conditions noted are these: 1 mM ATP, 3 hours at 25° C. As to the method:
as §1, with “The enzymatic modification of the peptide substrate (phosphorylation) results in a change of net charge enabling electrophoretic separation of product from substrate.” left out
In the case of `C=CC(=O)N1CC[C@]2(C1)C[C@H](n1c(NC(=O)c3ccc(OC)nc3)nc3ccccc31)C2` [Compound 55], the IC50 is 3.41 nM.

In turn, `C=CC(=O)N1CC[C@]2(C1)C[C@H](n1c(NC(=O)c3ccc(-c4nc(C)no4)s3)nc3ccccc31)C2` [Compound 92] displayed an IC50 of 64.3 nM.

Compound `C=CC(=O)N1CC[C@]2(C1)C[C@@H](n1c(NC(=O)c3ccc(-c4cnco4)s3)nc3ccc(Cl)cc31)C2` [Compound 69] showed an IC50 of 7.71 nM.

Compound `C=CC(=O)N1CC[C@]2(C1)C[C@H](n1c(NC(=O)c3ccc(-c4cccc(C#N)c4)s3)nc3ccccc31)C2` [Compound 122] gave an IC50 of 1.22 nM.

`C=CC(=O)N1CC[C@]2(C1)C[C@H](n1c(NC(=O)c3ccc(N4CCCC4=O)s3)nc3ccccc31)C2` [Compound 121] registered an IC50 of 5.48 nM.

For `C=CC(=O)N1CC[C@]2(C1)C[C@H](n1c(NC(=O)c3ccc(-c4noc(C)n4)s3)nc3ccccc31)C2` [Compound 93], the IC50 turned out to be 9.88 nM.

The compound `C=CC(=O)N1CC[C@]2(C1)C[C@@H](n1c(NC(=O)c3ccc(C(F)F)s3)nc3ccccc31)C2` [Compound 17] displayed an IC50 of 11 nM.

The compound `C=CC(=O)N1CC[C@]2(C1)C[C@H](n1c(NC(=O)c3ccc(-c4cnco4)s3)nc3ccc(CO)cc31)C2` [Compound 73] yielded an IC50 of 0.26 nM.

Compound `C=CC(=O)N1CC[C@]2(C1)C[C@H](n1c(NC(=O)c3ccc(C(=O)N4CCCC4)s3)nc3ccccc31)C2` [Compound 102] displayed an IC50 of 5.63 nM.

In the case of `C=CC(=O)N1CC[C@]2(C1)C[C@H](n1c(NC(=O)c3ccc(-c4ccc(C#N)cc4)s3)nc3ccccc31)C2` [Compound 118], half-maximal inhibition (IC50) required 7.31 nM.

Consider `C=CC(=O)N1CC[C@]2(C1)C[C@H](n1c(NC(=O)c3ccc(C(=O)Nc4cccnc4)s3)nc3ccccc31)C2` [Compound 85], for which the IC50 is 3.15 nM.

Regarding `C=CC(=O)N1CC[C@]2(C1)C[C@H](n1c(NC(=O)c3ccc(C(=O)N4CCOCC4)s3)nc3ccccc31)C2` [Compound 91], it took 17.6 nM to reach half-maximal inhibition (IC50).

In turn, `C=CC(=O)N1CC[C@]2(C1)C[C@H](n1c(NC(=O)c3ccc(NC(=O)c4cccnc4)s3)nc3ccccc31)C2` [Compound 111] returned an IC50 of 64.1 nM.

`C=CC(=O)N1CC[C@]2(C1)C[C@@H](n1c(NC(=O)c3ccc(-c4cnco4)s3)nc3cc(Cl)ccc31)C2` [Compound 71] displayed an IC50 of 17.9 nM.

`C=CC(=O)N1CCC[C@]2(C1)C[C@H](n1c(NC(=O)c3ccc(C(F)F)s3)nc3cc(CN[C@@H](C)C(C)(C)C)ccc31)C2` [Compound 9]: half-maximal inhibition (IC50) was put at 0.2 nM.

`C=CC(=O)N1CC[C@]2(C1)C[C@H](n1c(NC(=O)c3ccc(-c4cncnc4)s3)nc3cc(CO)ccc31)C2` [Compound 148] showed an IC50 of 0.69 nM.

In turn, `C=CC(=O)N1CC[C@]2(C1)C[C@H](n1c(NC(=O)c3ccc(C(=O)OC)s3)nc3ccccc31)C2` [Compound 98] came in with an IC50 of 0.31 nM.

Take `C=CC(=O)N1CCC[C@]2(C1)C[C@@H](n1c(NC(=O)c3ccc(C(F)F)s3)nc3cc(CN[C@@H](C)C(C)(C)C)ccc31)C2` [Compound 10]: it took 0.84 nM to reach half-maximal inhibition (IC50).

`C=CC(=O)N1CC[C@]2(C1)C[C@H](n1c(NC(=O)c3ccc(-c4cnco4)s3)nc3c(OC)cccc31)C2` [Compound 87] showed an IC50 of 5.72 nM.

`C=CC(=O)N1CC[C@]2(C1)C[C@H](n1c(NC(=O)c3ccc(NC(=O)C4CCCC4)s3)nc3ccccc31)C2` [Compound 106] gave an IC50 of 30.1 nM.
